Reference: US20230286973A1, “PROTEIN SECRETION INHIBITORS” (KEZAR LIFE SCIENCES, priority 2020, published 2023)
pEC50, pIC50: −log10 of the molar value.

Key:
[1] = test system: PD1-ss+10aa/Gaussia Luciferase; assay: Dox-Induced PD1-ss-Gluc Assay; assay type: cell-based; conditions: 24 hr Dox induction; 293FRT/TO cells; mean; read-out: 24 hr Dox Inducible PD1ssGluc 293FRT/TO: Mean IC50
Outline: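 Compounds were added in DMSO/media with doxycycline and incubated at 37 °C, 5% CO2, on 293 T-REx cells plated one day earlier. These cells stably express, under tetracycline-regulated control, a Gaussia luciferase fused to the PD1 signal peptide plus 10 residues. Structures drawn without stereochemistry were tested as stereoisomer mixtures.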

[2] = test system: TNFα-FL/Gaussia Luciferase; assay: Dox Induced TNFα-FL-Gluc Assay; assay type: cell-based; conditions: for pIC50: 24 hr Dox induction, 293FRT/TO cells, mean, read-out: 24 hr Dox Inducible TNFaFLGluc 293FRT/TO: Mean IC50; for 24 hr Dox Inducible TNFaFLGluc 293FRT/TO: TNF/PD1: ratio of TNFaFLGluc IC50 to PD1ssGluc IC50, '<=>' given where both are I.A.
Outline: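 Cell line: stable Flp-In 293 T-REx, TNFα-FL(1-233)-Gaussia luciferase fusion, T-REx-inducible. Plated day -1; compounds in DMSO/media + doxycycline, 37 °C, 5% CO2. Undefined stereocentres = mixture tested.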

[3] = test system: HER3-ss+4aa/Gaussia Luciferase; assay: Dox-Induced Her3-ss-Gluc Assay; assay type: cell-based; conditions: 24 hr Dox induction; 293FRT/TO cells; mean; read-out: 24 hr Dox Inducible Her3(ss + 4)Gluc 293FRT/TO: Mean IC50
Outline: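 Flp-In 293 T-REx cells, stable HER3-ss+4aa/Gaussia luciferase insert, hygromycin/blasticidin selected; plated day before; compound in DMSO/media + doxycycline; 37° C., 5% CO2.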

[4] = test system: IL-2-FL/Gaussia Luciferase; assay: Dox Induced IL2-FL-Gluc Assay; assay type: cell-based; conditions: for pIC50: 24 hr Dox induction, 293FRT/TO cells, mean, read-out: 24 hr Dox Inducible IL2FLGluc 293FRT/TO: Mean IC50; for 24 hr Dox Inducible IL2FLGluc 293FRT/TO: IL2/PD1: ratio of IL2FLGluc IC50 to PD1ssGluc IC50, '<=>' given where both are I.A.
Outline: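 Stable Flp-In 293 T-REx line, Tet-regulated IL-2 (aa 1-153)–Gaussia luciferase fusion; hygromycin/blasticidin selected. Plated day -1; compound + doxycycline added next day; 37° C, 5% CO2.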

[5] = test system: multiple myeloma cell line NCI-H929; assay: H929 Cell Viability Assay; assay type: cell-based, human; conditions: Homo sapiens, NCI-H929, 48 h, NCI-H929 cells, Celltiter-Glo
Outline: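 Cells in RPMI 1640/10% FBS; compound dilutions in DMSO/media; 48 h, 37° C, 5% CO2; CellTiter-Glo luciferase readout for viability.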

[6] = test system: multiple myeloma cell line U266B1; assay: U266 Cell Viability Assay; assay type: cell-based, human; conditions: Homo sapiens, U-266, 48 h, U266B1 cells, Celltiter-Glo
Outline: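 Luminescent ATP read-out (CellTiter-Glo) after 48 h compound exposure at 37° C., 5% CO2; cells maintained in RPMI 1640/10% FBS/2 mM glutamine/pen-strep, compounds diluted in DMSO/media.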

[7] = Liver Microsome Stability Assay (rat); conditions: rat liver microsomes, with NADPH, 1.0 uM compound
Method: (§1) Stability of a compound was assessed in the presence of liver microsomes from various sources—mouse, rat, monkey and human liver microsomes. 1.0 uM compound, 0.4% DMSO in 0.1 M Potassium Phosphate with 1.0 mg/mL liver microsomes, were incubated at 37° C. with or without 1 mM NADPH. The samples were quenched at 0, and 30 minutes.

[8] = Liver Microsome Stability Assay (mouse); conditions: mouse liver microsomes, with NADPH, 1.0 uM compound
Method: as §1

[9] = Liver Microsome Stability Assay (human); conditions: human liver microsomes, with NADPH, 1.0 uM compound
Method: as §1

[10] = Liver Microsome Stability Assay (monkey); conditions: monkey liver microsomes, with NADPH, 1.0 uM compound
Method: as §1

Compound	pIC50 [1]	pIC50 [2]	pIC50 [3]	pIC50 [4]	pEC50 [5]	pEC50 [6]	Liver Microsome Stability (Multiple Species): Rat - % Remaining after 30 min w/NADPH [7]	Liver Microsome Stability (Multiple Species): Mouse - % Remaining after 30 min w/NADPH [8]	Liver Microsome Stability (Multiple Species): Human - % Remaining after 30 min w/NADPH [9]	Liver Microsome Stability (Multiple Species): Monkey - % Remaining after 30 min w/NADPH [10]	24 hr Dox Inducible TNFaFLGluc 293FRT/TO: TNF/PD1 [2]	24 hr Dox Inducible IL2FLGluc 293FRT/TO: IL2/PD1 [4]
CN(C)CCO[C@@H]1C[C@H](c2csc(NC(=O)c3cccn3Cc3ccncc3)n2)N(c2ccccc2)C1 [Compound E31]	5.78	< 4.60	5.04	5.04	5.05	5.10	21.2%	38.3%	2.06%	0.25%	>15.0	5.4
O=C(Nc1nc([C@H]2C[C@@H](OCCO)CN2c2ccccc2)cs1)c1cccn1Cc1ccncc1 [Compound E32]	5.99	5.15	5.51	5.40	4.60	< 4.60	0.79%	3.3%	0.21%	0.09%	6.91	3.9
O=C(Nc1nc(C2C3CN(c4ccccn4)CC32)cs1)c1cccn1Cc1ccncc1 (stereo not drawn) [Compound E33, N-(4-(3-(pyridin-2-yl)-3-azabicyclo[3.1.0]hexan-6-yl)thiazol-2-yl)-1-(pyridin-4-ylmethyl)-1H-pyrrole-2-carboxamide]	5.91	< 4.60	5.41	4.83	< 4.60	< 4.60	0.18%	2.58%	1.6%	0.1%	>20.3	12
COc1ccc(O[C@H]2CC[C@H](c3csc(NC(=O)c4cccn4Cc4ccncc4)n3)CC2)nc1 [Compound E34, N-(4-((1r,4r)-4-((5-methoxypyridin-2-yl)oxy)cyclohexyl)thiazol-2-yl)-1-(pyridin-4-ylmethyl)-1H-pyrrole-2-carboxamide]	6.51	5.09	6.19	5.58	4.71	5.10	0.26%	0.06%	0.19%	3.44%	26.1	8.3
O=C(Nc1nc(C2C3CN(c4ccccc4)CC32)cs1)c1cccn1Cc1ccncc1 (stereo not drawn) [Compound E36, N-(4-(3-phenyl-3-azabicyclo[3.1.0]hexan-6-yl)thiazol-2-yl)-1-(pyridin-4-ylmethyl)-1H-pyrrole-2-carboxamide]	6.55	5.30	6.05	5.77	< 4.60	4.86	1.49%	27.8%	1.63%	0.83%	17.8	6
O=C(Nc1nc(C2Cc3cccnc3C2)cs1)c1cccn1Cc1ccncc1 (stereo not drawn) [Compound E37, N-(4-(6,7-dihydro-5H-cyclopenta[b]pyridin-6-yl)thiazol-2-yl)-1-(pyridin-4-ylmethyl)-1H-pyrrole-2-carboxamide]	5.54	< 4.60	5.09	4.78	< 4.60	< 4.60	0.34%	0.18%	0.08%	0.08%	>8.63	5.7
CC(=O)N1CCC(O[C@@H]2C[C@H](c3csc(NC(=O)c4cccn4Cc4ccncc4)n3)N(c3ccccc3)C2)CC1 [Compound E40, N-(4-((2R,4R)-4-((1-acetylpiperidin-4-yl)oxy)-1-phenylpyrrolidin-2-yl)thiazol-2-yl)-1-(pyridin-4-ylmethyl)-1H-pyrrole-2-carboxamide]	6.49	5.69	6.19	6.11	5.17	< 4.60	1.43%	2.75%	0.43%	0.1%	6.42	2.4

More lines, main results first:

pIC50 [1]	pIC50 [2]	pIC50 [3]	pIC50 [4]	pEC50 [5]	pEC50 [6]	Liver Microsome Stability (Multiple Species): Rat - % Remaining after 30 min w/NADPH [7]	Liver Microsome Stability (Multiple Species): Mouse - % Remaining after 30 min w/NADPH [8]	Liver Microsome Stability (Multiple Species): Human - % Remaining after 30 min w/NADPH [9]	Liver Microsome Stability (Multiple Species): Monkey - % Remaining after 30 min w/NADPH [10]	Compound	24 hr Dox Inducible TNFaFLGluc 293FRT/TO: TNF/PD1 [2]	24 hr Dox Inducible IL2FLGluc 293FRT/TO: IL2/PD1 [4]
6.83	5.32	6.41	6.03	5.06	4.74	1.2%	0.08%	0.41%	0.7%	COc1ccc(O[C@H]2CC[C@@H](c3csc(NC(=O)c4cccn4Cc4ccncc4)n3)CC2)nc1 [Compound E35, N-(4-((1s,4s)-4-((5-methoxypyridin-2-yl)oxy)cyclohexyl)thiazol-2-yl)-1-(pyridin-4-ylmethyl)-1H-pyrrole-2-carboxamide]	32.6	6.3
6.31	5.28	5.95	5.73	4.62	4.64	0.33%	0.25%	0.1%	0.13%	COc1ccc(O[C@H]2CC[C@H](c3csc(NC(=O)c4cccn4Cc4ccncc4)n3)C2)nc1 [Compound E38, N-(4-((1S,3S)-3-((5-methoxypyridin-2-yl)oxy)cyclopentyl)thiazol-2-yl)-1-(pyridin-4-ylmethyl)-1H-pyrrole-2-carboxamide]	10.7	3.8
6.80	5.78	6.46	6.35	5.07	4.86	1.17%	0.23%	0.34%	0.19%	COc1ccc(O[C@@H]2CCC[C@H](c3csc(NC(=O)c4cccn4Cc4ccncc4)n3)C2)nc1 [Compound E39, N-(4-((1S,3R)-3-((5-methoxypyridin-2-yl)oxy)cyclohexyl)thiazol-2-yl)-1-(pyridin-4-ylmethyl)-1H-pyrrole-2-carboxamide]	10.3	2.8
